For two molecules, inhibition, Kd and IC50 results are on record in ChEMBL document CHEMBL1159174, “Spiroketal glycomimetics: the synthesis of a conformationally restrained Sialyl Lewis X mimic” (Bioorg Med Chem Lett, 1995).

The target of assay [1] is T1, E-selectin (Homo sapiens) (UniProt P16581).
T1 sequence (whole entry): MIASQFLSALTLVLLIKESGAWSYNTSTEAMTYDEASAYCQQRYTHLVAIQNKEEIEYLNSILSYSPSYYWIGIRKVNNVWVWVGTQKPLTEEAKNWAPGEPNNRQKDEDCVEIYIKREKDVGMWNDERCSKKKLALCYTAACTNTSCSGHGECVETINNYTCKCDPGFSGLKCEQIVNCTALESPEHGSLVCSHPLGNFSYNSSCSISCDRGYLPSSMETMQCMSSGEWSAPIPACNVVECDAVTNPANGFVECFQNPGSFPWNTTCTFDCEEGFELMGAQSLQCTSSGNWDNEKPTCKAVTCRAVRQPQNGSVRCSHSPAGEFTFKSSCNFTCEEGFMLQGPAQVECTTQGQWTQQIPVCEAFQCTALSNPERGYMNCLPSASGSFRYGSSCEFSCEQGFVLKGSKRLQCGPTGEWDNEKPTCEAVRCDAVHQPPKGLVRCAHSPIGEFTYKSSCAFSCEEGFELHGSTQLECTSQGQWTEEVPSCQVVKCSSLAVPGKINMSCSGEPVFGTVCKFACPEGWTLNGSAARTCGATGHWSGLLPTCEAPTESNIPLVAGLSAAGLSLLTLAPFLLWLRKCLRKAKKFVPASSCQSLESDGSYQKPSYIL
The experiment in a line: Ability to inhibit the binding to Selectin E immobilized on SPA beads of radiolabeled HL-60 cell membrane was determined at concentration of 10 mM. The class given is cell membranes.

Assay [2] has as its target T2, E-selectin (Homo sapiens, UniProt P16581).
T2 sequence (P16581 whole entry): T1 sequence (whole entry)
The experiment in a line: Affinity of compound to Selectin E was determined.

Assay [3] deals with T2, E-selectin. The experiment in a line: Ability to inhibit the binding to Selectin E immobilized on SPA beads of radiolabeled HL-60 cell membrane was determined. The format is cell membranes.

As to `CC(=O)NC1C(O)CC(OC2CCO[C@]3(CCC(OC4OC(C)C(O)C(O)C4O)CO3)C2)(C(=O)O)OC1[C@H](O)[C@H](O)CO` (stereo partly drawn), the inhibition in assay [1] came to 35%. With `CC(=O)N[C@H]1[C@H]([C@H](O)[C@H](O)CO)O[C@@](O[C@H]2[C@@H](O)[C@@H](CO)O[C@@H](O[C@@H]([C@H](O[C@@H]3O[C@@H](C)[C@@H](O)[C@@H](O)[C@@H]3O)[C@H](C=O)NC(C)=O)[C@H](O)CO)[C@@H]2O)(C(=O)O)C[C@@H]1O` [SIALYL LEWIS X], on E-selectin [2], binding was put at a Kd of 1000 µM. For the same molecule, the IC50 on E-selectin [3] amounted to 300 µM.
